Data from patent US20090312288A1 (TAKEDA PHARMACEUTICAL COMPANY LIMITED, priority 2008, published 2009).
pIC50: −log10 of the molar value.

biological target: Aurora B/INCENP (Homo sapiens, UniProt Q96GD4); test: Determination of inhibition of AIK: Aurora B/INCENP direct fluorescence polarization (IMAP) assay; format: biochemical; settings: 10 uM ATP, 0.8 nM Aurora B/INCENP; values given as bins; read-out: IC50 of Exemplified Compounds Against AIK B
Sequence (Q96GD4 whole entry): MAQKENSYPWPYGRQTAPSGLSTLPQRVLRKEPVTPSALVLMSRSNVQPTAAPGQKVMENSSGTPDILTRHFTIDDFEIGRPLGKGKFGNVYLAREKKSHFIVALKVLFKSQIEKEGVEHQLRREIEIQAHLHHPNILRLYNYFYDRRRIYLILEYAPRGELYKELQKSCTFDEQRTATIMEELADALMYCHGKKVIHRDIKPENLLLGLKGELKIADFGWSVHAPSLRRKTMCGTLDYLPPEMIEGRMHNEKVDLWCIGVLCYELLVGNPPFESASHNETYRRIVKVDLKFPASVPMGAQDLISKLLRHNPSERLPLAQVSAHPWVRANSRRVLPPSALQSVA
Sequence (Q9NQS7 whole entry partner): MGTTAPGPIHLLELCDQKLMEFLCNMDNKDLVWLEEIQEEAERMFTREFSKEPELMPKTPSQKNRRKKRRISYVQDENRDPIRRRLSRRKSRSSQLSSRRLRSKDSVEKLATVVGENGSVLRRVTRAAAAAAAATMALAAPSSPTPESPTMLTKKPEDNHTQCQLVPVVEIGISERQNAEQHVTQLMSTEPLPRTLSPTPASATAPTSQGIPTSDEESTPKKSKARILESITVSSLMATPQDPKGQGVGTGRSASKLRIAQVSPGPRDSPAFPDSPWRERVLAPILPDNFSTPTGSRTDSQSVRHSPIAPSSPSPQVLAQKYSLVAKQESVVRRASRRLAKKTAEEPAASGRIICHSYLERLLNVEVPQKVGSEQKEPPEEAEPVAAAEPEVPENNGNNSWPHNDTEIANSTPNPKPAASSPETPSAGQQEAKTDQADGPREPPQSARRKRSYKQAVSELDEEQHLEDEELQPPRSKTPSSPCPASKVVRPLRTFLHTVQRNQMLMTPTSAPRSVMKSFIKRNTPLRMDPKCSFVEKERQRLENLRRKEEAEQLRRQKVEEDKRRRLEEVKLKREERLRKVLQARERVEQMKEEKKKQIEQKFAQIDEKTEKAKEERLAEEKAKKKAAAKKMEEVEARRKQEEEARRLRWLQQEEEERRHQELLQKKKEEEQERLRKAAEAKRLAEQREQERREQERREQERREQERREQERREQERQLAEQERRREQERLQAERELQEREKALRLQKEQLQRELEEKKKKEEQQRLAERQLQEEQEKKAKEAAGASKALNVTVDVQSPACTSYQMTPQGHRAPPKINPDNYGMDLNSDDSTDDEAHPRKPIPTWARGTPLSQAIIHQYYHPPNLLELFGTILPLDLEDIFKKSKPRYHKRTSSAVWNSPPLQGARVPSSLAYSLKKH

Compound | pIC50
CCN(CCO)CCCOc1ccc(-c2cccc(S(=O)(=O)C3CC3)c2)c2c1[nH]c1ncc(C)cc12 [Compound 270, 2-((3-(5-(3-(cyclopropylsulfonyl)phenyl)-3-methyl-9H-pyrido[2,3-b]indol-8-yloxy)propyl)(ethyl)amino)ethanol] | 8.26 to 8.40
CCN(CCCOc1ccc(-c2cccc(S(=O)(=O)C3CC3)c2)c2c1[nH]c1ncc(C)cc12)CCOP(=O)(O)O [Compound 272, 2-((3-(5-(3-(cyclopropylsulfonyl)phenyl)-3-methyl-9H-pyrido[2,3-b]indol-8-yloxy)propyl)(ethyl)amino)ethyl dihydrogen phosphate] | 8.07 to 8.25
CCN(CCO)CCCOc1ccc(-c2cccc(C(=O)NC3CC3)c2)c2c1[nH]c1ncc(C)cc12 [Compound 273, N-cyclopropyl-3-(8-(3-(ethyl(2-hydroxyethyl)amino)propoxy)-3-methyl-9H-pyrido[2,3-b]indol-5-yl)benzamide] | 8.07 to 8.25
CCN(CCCOc1ccc(-c2cccc(C(=O)NC3CC3)c2)c2c1[nH]c1ncc(C)cc12)CCOP(=O)(O)O [Compound 275, 2-((3-(5-(3-(cyclopropylcarbamoyl)phenyl)-3-methyl-9H-pyrido[2,3-b]indol-8-yloxy)propyl)(ethyl)amino)ethyl dihydrogen phosphate] | 8.07 to 8.25
CCN(CCO)CCCOc1ccc(-c2cccc(S(=O)(=O)CC)c2)c2c1[nH]c1ncc(C)cc12 [Compound 276, 2-(ethyl(3-(5-(3-(ethylsulfonyl)phenyl)-3-methyl-9H-pyrido[2,3-b]indol-8-yloxy)propyl)amino)ethanol] | 8.07 to 8.25
CCN(CCCOc1ccc(-c2cccc(S(=O)(=O)CC)c2)c2c1[nH]c1ncc(C)cc12)CCOP(=O)(O)O [Compound 278, 2-(ethyl(3-(5-(3-(ethylsulfonyl)phenyl)-3-methyl-9H-pyrido[2,3-b]indol-8-yloxy)propyl)amino)ethyl dihydrogen phosphate] | 8.26 to 8.40
CN1CCC(COc2ccc(-c3cccc(C(=O)NC4CC4)c3)c3c2[nH]c2ncc(Cl)cc23)CC1 [Compound 285, 3-(3-chloro-8-((1-methylpiperidin-4-yl)methoxy)-9H-pyrido[2,3-b]indol-5-yl)-N-cyclopropylbenzamide] | 7.89 to 8.07
CN1CCC(COc2ccc(-c3cccc(S(=O)(=O)C4CC4)c3)c3c2[nH]c2ncc(Cl)cc23)CC1 [Compound 286, 3-chloro-5-(3-(cyclopropylsulfonyl)phenyl)-8-((1-methylpiperidin-4-yl)methoxy)-9H-pyrido[2,3-b]indole] | 7.89 to 8.07
CCS(=O)(=O)c1cccc(-c2ccc(OCC3CCN(C)CC3)c3[nH]c4ncc(F)cc4c23)c1 [Compound 287, 5-(3-(ethylsulfonyl)phenyl)-3-fluoro-8-((1-methylpiperidin-4-yl)methoxy)-9H-pyrido[2,3-b]indole] | 8.07 to 8.25
CCS(=O)(=O)c1cccc(-c2ccc(OCCCO)c3[nH]c4ncc(Cl)cc4c23)c1 [Compound 291, 3-(3-chloro-5-(3-(ethylsulfonyl)phenyl)-9H-pyrido[2,3-b]indol-8-yloxy)propan-1-ol] | > 8.40
CCN(CCO)CCCOc1ccc(-c2cccc(S(=O)(=O)CC)c2)c2c1[nH]c1ncc(Cl)cc12 [Compound 293, 2-((3-(3-chloro-5-(3-(ethylsulfonyl)phenyl)-9H-pyrido[2,3-b]indol-8-yloxy)propyl)(ethyl)amino)ethanol] | > 8.40
CCN(CCCOc1ccc(-c2cccc(S(=O)(=O)CC)c2)c2c1[nH]c1ncc(Cl)cc12)CCOP(=O)(O)O [Compound 294, 2-((3-(3-chloro-5-(3-(ethylsulfonyl)phenyl)-9H-pyrido[2,3-b]indol-8-yloxy)propyl)(ethyl)amino)ethyl dihydrogen phosphate] | > 8.40
CCN(CCO)CCCOc1ccc(-c2cccc(S(=O)(=O)C3CC3)c2)c2c1[nH]c1ncc(Cl)cc12 [Compound 298, 2-((3-(3-chloro-5-(3-(cyclopropylsulfonyl)phenyl)-9H-pyrido[2,3-b]indol-8-yloxy)propyl)(ethyl)amino)ethanol] | > 8.40
Cc1cnc2[nH]c3c(OCCCN4CCC(O)CC4)ccc(-c4cccc(S(=O)(=O)C5CC5)c4)c3c2c1 [Compound 300, 1-(3-(5-(3-(cyclopropylsulfonyl)phenyl)-3-methyl-9H-pyrido[2,3-b]indol-8-yloxy)propyl)piperidin-4-ol] | > 8.40
CCS(=O)(=O)c1cccc(-c2ccc(OCCCn3ccnc3)c3[nH]c4ncc(Cl)cc4c23)c1 [Compound 301, 8-(3-(1H-imidazol-1-yl)propoxy)-3-chloro-5-(3-(ethylsulfonyl)phenyl)-9H-pyrido[2,3-b]indole] | > 8.40
CCS(=O)(=O)c1cccc(-c2ccc(OCCCN(C)CCO)c3[nH]c4ncc(C)cc4c23)c1 [Compound 305, 2-((3-(5-(3-(ethylsulfonyl)phenyl)-3-methyl-9H-pyrido[2,3-b]indol-8-yloxy)propyl)(methyl)amino)ethanol] | > 8.40
CCS(=O)(=O)c1cccc(-c2ccc(OCCCN(C)CCOP(=O)(O)O)c3[nH]c4ncc(C)cc4c23)c1 [Compound 308, 2-((3-(5-(3-(ethylsulfonyl)phenyl)-3-methyl-9H-pyrido[2,3-b]indol-8-yloxy)propyl)(methyl)amino)ethyl dihydrogen phosphate] | > 8.40
Cc1cnc2[nH]c3c(OC[C@@H](O)CN(C)C)ccc(-c4cccc(S(=O)(=O)C5CC5)c4)c3c2c1 [Compound 313, (S)-1-(5-(3-(cyclopropylsulfonyl)phenyl)-3-methyl-9H-pyrido[2,3-b]indol-8-yloxy)-3-(dimethylamino)propan-2-ol] | > 8.40
Cc1cnc2[nH]c3c(OC[C@H](CN(C)C)OP(=O)(O)O)ccc(-c4cccc(S(=O)(=O)C5CC5)c4)c3c2c1 [Compound 314, (S)-1-(5-(3-(cyclopropylsulfonyl)phenyl)-3-methyl-9H-pyrido[2,3-b]indol-8-yloxy)-3-(dimethylamino)propan-2-yl dihydrogen phosphate] | 8.26 to 8.40
Cc1cnc2[nH]c3c(OC[C@@H](CN(C)C)OP(=O)(O)O)ccc(-c4cccc(S(=O)(=O)C5CC5)c4)c3c2c1 [Compound 315, (R)-1-(5-(3-(cyclopropylsulfonyl)phenyl)-3-methyl-9H-pyrido[2,3-b]indol-8-yloxy)-3-(dimethylamino)propan-2-yl dihydrogen phosphate] | > 8.40
Cc1cc(Nc2ccc(OCC3CCN(C)CC3)c3[nH]c4ncc(Cl)cc4c23)ccc1N1CCN(C)CC1 [Compound 316, 3-chloro-N-(3-methyl-4-(4-methylpiperazin-1-yl)phenyl)-8-((1-methylpiperidin-4-yl)methoxy)-9H-pyrido[2,3-b]indol-5-amine] | < 7.89
CCN(CCO)CCOc1ccc(-c2cccc(S(=O)(=O)C3CC3)c2)c2c1[nH]c1ncc(C)cc12 [Compound 318, 2-((2-(5-(3-(cyclopropylsulfonyl)phenyl)-3-methyl-9H-pyrido[2,3-b]indol-8-yloxy)ethyl)(ethyl)amino)ethanol] | 7.89 to 8.07
CN(CCO)CCOc1ccc(-c2cccc(S(=O)(=O)C3CC3)c2)c2c1[nH]c1ncc(Cl)cc12 [Compound 319, 2-((2-(3-chloro-5-(3-(cyclopropylsulfonyl)phenyl)-9H-pyrido[2,3-b]indol-8-yloxy)ethyl)(methyl)amino)ethanol] | > 8.40
